The test system of this test is ASPC1. Kind of test: Cytotoxicity against human Aspc-1 cells incubated for 72 hrs by MTT assay. The class given is functional, cell-based. The note with it: ASPC1, 72 h.

Turning to `CC[C@@H]1OC(=O)C[C@@H](C/C=C/C=C(\C)[C@H]2OC(=O)CC/C=C(\C)[C@@H](C)[C@H](O)[C@H](C)[C@@H](OC(N)=O)/C=C\C=C/[C@@H]2C)[C@H]1C`, the concentration for half-maximal inhibition (IC50) amounted to 43 nM. In turn, `CC[C@@H]1OC(=O)C[C@@](O)(C/C=C/C=C(\C)[C@H]2OC(=O)CC/C=C(\C)[C@@H](C)[C@H](O)[C@H](C)[C@@H](OC(N)=O)/C=C\C=C/[C@@H]2C)[C@H]1C` showed an IC50 of 46 nM. For the compound `C=C1[C@@H](C)[C@H](O)[C@H](C)[C@@H](OC(N)=O)/C=C\C=C/[C@H](C)[C@@H](/C(C)=C/C=C/C[C@]2(O)CC(=O)O[C@@H](CC)[C@@H]2C)OC(=O)CC[C@H]1OO`, the IC50 turned out to be 3700 nM.

The values are drawn from ChEMBL document CHEMBL4033610, “Analogues of the Potent Antitumor Compound Leiodermatolide from a Deep-Water Sponge of the Genus Leiodermatium” (J Nat Prod, 2017).
